Measured values taken from patent publication US20110124574A1, “RESTORATION OF ESTROGEN RECEPTOR-(ALPHA) ACTIVITY” (priority 2008, published 2011).
Where no end group is shown, it is not given here. The star is where a group is joined. For = O=C*

Tested on: ERα
Assay: ERα protein expression by Western blot in stimulated MDA-MB-231 cells
Type: cell-based, human
Settings: stimulation 24 and 48 hours, rWnt-5a 0.6 μg/ml, rWnt-3a 0.1 μg/ml, peptides 100 μM
Description: Breast cancer cells were grown in 6 well plates, and stimulated with recombinant Wnt-5a protein (rW5a), the Wnt-5a derived Foxy-5 peptide (F5), recombinant Wnt-3a protein (rW3a), or a formylated random hexapeptide (Rdm) for 24 or 48 h. Following treatment cells were lysed and subjected to SDS-PAGE, transferred to nitrocellulose membranes and blotted for ERα expression. A: MDA-MB-231 cells stimulated with recombinant Wnt-5a, Foxy-5, Wnt-3a, Rdm. B: MDA-MB-468 cells stimulated with recombinant Wnt-5a or Foxy-5. C: 4T1 cells stimulated with recombinant Wnt-5a or Foxy-5. Positive controls (Pos) were included in order to confirm the correct band size for ERα. Two different positive controls were used: T47D cell lysates known to express ERα and MDA-MB-231 cells transiently transfected with a full length ERα plasmid, resulting in extremely high ERα expression (top row, right panel, third row, right panel).
Stimulation of cells was performed with recombinant Wnt-5a (0.6 μg/ml) and recombinant Wnt-3a (0.1 μg/ml and in a control experiment, 0.6 μg/ml) (R&D Systems Abington, UK) for times as indicated. The Wnt-5a derived formylated hexapeptide, Foxy-5 (formyl-MDGCEL) (SEQ. ID. NO. 1) designed in the laboratory of the inventors, and a formylated random hexapeptide (formyl-MSADVG) (SEQ: ID: NO: 16) were either synthesized by Pepscan Presto (Lelystad, The Netherlands) or Inbiolabs (Tallinn, Estonia). The peptides were purified by RP-HPLC and mass spectrometry, and the >95% pure peptides were synthesized three times. Cells were treated with Foxy-5 or random peptide at a concentration of 100 μM for times as indicated. All other chemicals if not otherwise stated were purchased from Sigma Chemicals (St. Louis, Mo.).
Cells were lysed in Triton lysis buffer (50 mM Tris (pH7.5), 1% Triton x-100, 140 mM NaCl, 0.5 mM EDTA, 0.5 MgCl2, 10 mM NaF) with the addition of fresh leupeptin (1 μg/ml), Pefabloc (2 mM), aprotinin (20 μg/ml) and Na3VO4 (4 mM). […] Scanning and densitometry was performed using a Bio-Rad (Hercules Calif.) GS-800 densitometer with Quantity One software. […]

Molecule	levels of ERα protein
For-MSADVG [formylated random hexapeptide, reference compound]	Neither of these stimulations resulted in increased levels
recombinant Wnt-3a: recombinant Wnt-3a protein (R&D Systems), specificity control (protein, UniProt P56704 19-352, looked up) Protein Wnt-3a: SYPIWWSLAVGPQYSSLGSQPILCASIPGLVPKQLRFCRNYVEIMPSVAEGIKIGIQECQHQFRGRRWNCTTVHDSLAIFGPVLDKATRESAFVHAIASAGVAFAVTRSCAEGTAAICGCSSRHQGSPGKGWKWGGCSEDIEFGGMVSREFADARENRPDARSAMNRHNNEAGRQAIASHMHLKCKCHGLSGSCEVKTCWWSQPDFRAIGDFLKDKYDSASEMVVEKHRESRGWVETLRPRYTYFKVPTERDLVYYEASPNFCEPNPETGSFGTRDRTCNVSSHGIDGCDLLCCGRGHNARAERRREKCRCVFHWCCYVSCQECTRVYDVHTCK	Neither of these stimulations resulted in increased levels
